Values joined by “and” are separate entries in the source; they are usually repeats but may differ in a detail not shown here. Equal entries are not always repeated. “Also recorded” adds a separate entry of the source.
Legend:
CYP17A1 = target: T1, CYP17A1 (Homo sapiens, UniProt P05093); assay: UV-visible spectral ligand binding assay, isolated CYP17A1; conditions: difference spectra
T1 sequence (P05093 with tags, fused parts or gaps): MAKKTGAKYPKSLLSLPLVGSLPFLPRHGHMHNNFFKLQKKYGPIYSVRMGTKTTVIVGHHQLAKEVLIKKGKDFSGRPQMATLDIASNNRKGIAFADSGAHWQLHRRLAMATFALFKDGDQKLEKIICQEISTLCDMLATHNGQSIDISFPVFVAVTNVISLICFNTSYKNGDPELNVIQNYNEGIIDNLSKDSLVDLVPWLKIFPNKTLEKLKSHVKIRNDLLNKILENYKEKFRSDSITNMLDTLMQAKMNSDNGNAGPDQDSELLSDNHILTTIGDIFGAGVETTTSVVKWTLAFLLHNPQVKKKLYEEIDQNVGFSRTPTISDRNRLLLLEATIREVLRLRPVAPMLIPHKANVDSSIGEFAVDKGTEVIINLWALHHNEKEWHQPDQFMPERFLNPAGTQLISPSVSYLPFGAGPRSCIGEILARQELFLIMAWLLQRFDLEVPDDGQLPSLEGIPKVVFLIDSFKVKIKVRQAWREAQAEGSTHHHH

FMND/CYP17A1 [1] = target: T2, FMND/CYP17A1 (Homo sapiens, UniProt P05093+P16435); assay type: binding; conditions: for spectral shift (binding mode): difference spectra, FMND/CYP17A1 fusion, FMN domain oxidized
T2 sequence (P16435+P05093 with tags, fused parts or gaps): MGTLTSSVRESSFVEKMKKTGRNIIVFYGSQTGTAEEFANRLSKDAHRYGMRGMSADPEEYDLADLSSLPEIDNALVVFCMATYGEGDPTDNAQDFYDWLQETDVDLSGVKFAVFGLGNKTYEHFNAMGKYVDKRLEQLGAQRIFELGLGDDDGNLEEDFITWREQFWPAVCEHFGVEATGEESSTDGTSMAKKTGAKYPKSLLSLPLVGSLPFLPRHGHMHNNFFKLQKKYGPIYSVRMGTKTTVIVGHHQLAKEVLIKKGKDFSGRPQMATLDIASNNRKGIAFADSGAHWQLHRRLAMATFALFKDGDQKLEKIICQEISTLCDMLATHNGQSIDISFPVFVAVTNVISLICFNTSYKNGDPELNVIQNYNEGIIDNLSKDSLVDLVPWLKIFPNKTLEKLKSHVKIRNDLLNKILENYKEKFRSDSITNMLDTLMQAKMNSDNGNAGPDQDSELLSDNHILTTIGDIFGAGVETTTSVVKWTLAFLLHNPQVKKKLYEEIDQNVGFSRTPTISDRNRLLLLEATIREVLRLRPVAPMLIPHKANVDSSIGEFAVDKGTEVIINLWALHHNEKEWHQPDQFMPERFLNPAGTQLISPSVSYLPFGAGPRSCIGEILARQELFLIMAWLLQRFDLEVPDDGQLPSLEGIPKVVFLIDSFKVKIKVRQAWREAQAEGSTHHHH

CYP21A2 = target: T3, CYP21A2 (Homo sapiens, UniProt P08686, R103K); assay: UV-visible spectral ligand binding assay, isolated CYP21A2; conditions: difference spectra
T3 sequence (P08686 with tags, fused parts or gaps R103K limits assumed): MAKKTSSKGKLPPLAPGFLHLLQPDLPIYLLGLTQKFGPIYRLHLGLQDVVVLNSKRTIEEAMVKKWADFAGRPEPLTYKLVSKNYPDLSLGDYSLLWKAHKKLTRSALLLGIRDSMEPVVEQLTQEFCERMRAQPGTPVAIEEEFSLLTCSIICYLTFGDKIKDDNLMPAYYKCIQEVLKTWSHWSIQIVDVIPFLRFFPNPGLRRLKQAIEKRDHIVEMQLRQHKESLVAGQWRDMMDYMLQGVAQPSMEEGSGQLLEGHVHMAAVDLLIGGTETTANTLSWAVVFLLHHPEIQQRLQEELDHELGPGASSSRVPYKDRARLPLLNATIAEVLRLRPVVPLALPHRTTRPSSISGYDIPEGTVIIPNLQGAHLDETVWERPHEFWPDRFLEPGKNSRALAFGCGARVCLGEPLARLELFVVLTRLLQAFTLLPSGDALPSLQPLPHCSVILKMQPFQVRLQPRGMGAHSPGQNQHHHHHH

FMND/CYP21A2 [2] = target: T4, FMND/CYP21A2 (Homo sapiens, UniProt P08686+P16435, R103K); assay type: binding
T4 sequence (P16435+P08686 with tags, fused parts or gaps P08686:R103K): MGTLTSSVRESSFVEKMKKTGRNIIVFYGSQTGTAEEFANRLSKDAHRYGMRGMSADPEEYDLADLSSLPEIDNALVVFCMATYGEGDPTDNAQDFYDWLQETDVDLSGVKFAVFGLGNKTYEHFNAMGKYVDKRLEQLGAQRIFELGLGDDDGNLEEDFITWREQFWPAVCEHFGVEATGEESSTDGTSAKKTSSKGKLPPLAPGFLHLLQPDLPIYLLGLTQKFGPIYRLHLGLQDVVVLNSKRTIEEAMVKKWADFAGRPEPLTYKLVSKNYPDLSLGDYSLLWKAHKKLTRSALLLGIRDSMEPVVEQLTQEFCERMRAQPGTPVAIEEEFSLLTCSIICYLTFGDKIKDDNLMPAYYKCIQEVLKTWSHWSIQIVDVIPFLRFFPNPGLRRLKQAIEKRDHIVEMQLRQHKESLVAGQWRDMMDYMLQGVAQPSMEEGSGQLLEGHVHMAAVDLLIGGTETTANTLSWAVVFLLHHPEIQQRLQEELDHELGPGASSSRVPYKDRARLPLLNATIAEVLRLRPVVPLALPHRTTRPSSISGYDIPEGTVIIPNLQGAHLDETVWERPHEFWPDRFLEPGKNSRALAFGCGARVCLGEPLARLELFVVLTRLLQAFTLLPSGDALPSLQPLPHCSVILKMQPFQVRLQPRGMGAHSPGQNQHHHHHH

FMND/CYP21A2 [3] = target: T4, FMND/CYP21A2; assay type: biochemical; conditions: progesterone 21-hydroxylation, cumene hydroperoxide, FMND/CYP21A2 vs CYP21A2
FMND/CYP17A1 [4] = target: T2, FMND/CYP17A1; assay type: biochemical; conditions: progesterone 17α-hydroxylation, cumene hydroperoxide
CYP2D6 = CYP2D6 (Homo sapiens, UniProt P10635); assay: UV-visible spectral ligand binding assay, isolated CYP2D6; conditions: difference spectra
FMND/CYP2D6 = assay type: binding, human
FMND/CYP3A4 [5] = target: T5, FMND/CYP3A4 (Homo sapiens, UniProt P08684); conditions: FMND/CYP3A4 compared with CYP3A4
CYP2A6 = target: T6, CYP2A6 (Homo sapiens, UniProt P11509); assay: UV-visible spectral ligand binding assay, isolated CYP2A6; conditions: difference spectra
T6 sequence (P11509 with tags, fused parts or gaps): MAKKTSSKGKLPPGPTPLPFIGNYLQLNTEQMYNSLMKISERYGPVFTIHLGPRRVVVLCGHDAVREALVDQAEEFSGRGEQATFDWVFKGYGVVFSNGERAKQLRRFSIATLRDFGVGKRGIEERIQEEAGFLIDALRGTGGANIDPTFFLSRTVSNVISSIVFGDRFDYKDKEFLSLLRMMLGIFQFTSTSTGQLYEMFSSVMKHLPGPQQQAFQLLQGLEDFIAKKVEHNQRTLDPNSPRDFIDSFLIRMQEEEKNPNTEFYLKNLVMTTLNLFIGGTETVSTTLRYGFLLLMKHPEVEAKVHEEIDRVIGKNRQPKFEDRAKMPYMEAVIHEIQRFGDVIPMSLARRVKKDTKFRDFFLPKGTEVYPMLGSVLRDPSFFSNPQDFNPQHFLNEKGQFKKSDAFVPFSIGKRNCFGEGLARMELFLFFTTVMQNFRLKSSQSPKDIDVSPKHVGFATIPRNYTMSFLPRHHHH

FMND/CYP2A6 [6] = target: T7, FMND/CYP2A6 (Homo sapiens, UniProt P11509); assay type: binding; conditions: for spectral shift (binding mode): difference spectra, FMND/CYP2A6 fusion, FMN domain oxidized
T7 sequence (P11509 with tags, fused parts or gaps): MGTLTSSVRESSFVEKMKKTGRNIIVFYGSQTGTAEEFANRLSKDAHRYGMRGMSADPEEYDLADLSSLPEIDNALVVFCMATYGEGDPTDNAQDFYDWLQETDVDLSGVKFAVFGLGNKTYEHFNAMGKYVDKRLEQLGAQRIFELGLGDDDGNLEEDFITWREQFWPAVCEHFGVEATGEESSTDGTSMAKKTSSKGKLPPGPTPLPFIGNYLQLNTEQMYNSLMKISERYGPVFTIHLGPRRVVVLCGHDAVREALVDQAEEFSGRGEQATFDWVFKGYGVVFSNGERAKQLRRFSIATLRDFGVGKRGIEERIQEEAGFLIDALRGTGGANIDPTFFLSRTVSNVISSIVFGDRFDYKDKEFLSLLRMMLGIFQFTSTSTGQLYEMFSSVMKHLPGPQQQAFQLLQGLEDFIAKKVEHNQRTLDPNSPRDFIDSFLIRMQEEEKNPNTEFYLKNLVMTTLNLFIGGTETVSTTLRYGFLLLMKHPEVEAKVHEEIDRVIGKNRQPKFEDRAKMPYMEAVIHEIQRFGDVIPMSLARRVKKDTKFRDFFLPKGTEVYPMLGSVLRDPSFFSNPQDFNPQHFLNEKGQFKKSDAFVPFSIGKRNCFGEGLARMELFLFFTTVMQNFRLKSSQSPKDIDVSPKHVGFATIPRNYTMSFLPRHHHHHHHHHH

FMND/CYP2A6 [7] = target: T7, FMND/CYP2A6; assay type: biochemical; conditions: coumarin metabolism to 7-hydroxycoumarin, cumene hydroperoxide, FMND/CYP2A6 vs CYP2A6
FMND/CYP3A4 [8] = target: T5, FMND/CYP3A4; assay type: biochemical; conditions: hydrocortisone metabolism to 6β-hydroxycortisol, cumene hydroperoxide, FMND/CYP3A4 vs CYP3A4
[9] = FMND/CYP17A1 compared with CYP17A1
[10] = FMND/CYP21A2 compared with CYP21A2
[11] = FMND/CYP2A6 compared with CYP2A6
[12] = FMND/CYP2D6 compared with CYP2D6

## CC(=O)[C@H]1CC[C@H]2[C@@H]3CCC4=CC(=O)CC[C@]4(C)[C@H]3CC[C@]12C [progesterone]
CYP17A1
  spectral shift (binding mode): type I
FMND/CYP17A1 [1]; [9]
  increase in affinity by FMN domain fusion: 17%
  increase in overall binding efficiency (ΔAmax/Kd) by FMN domain fusion: 38%
FMND/CYP17A1 [1]
  spectral shift (binding mode): type I
CYP21A2
  spectral shift (binding mode): type I
FMND/CYP21A2 [2]; [10]
  decrease in total / maximal absorbance change (ΔAmax) by FMN domain fusion: 31% and 30%
  effect of FMN domain fusion on the affinity, in words: without substantially altering
FMND/CYP21A2 [2]; difference spectra, FMND/CYP21A2 fusion, FMN domain oxidized
  spectral shift (binding mode): type I
FMND/CYP21A2 [3]
  effect on catalytic efficiency, in words: unchanged
  increase in kcat by FMN domain fusion: 17%
FMND/CYP17A1 [4]; CYP17A1 and FMND/CYP17A1
  steady-state kinetics, saturation: saturation could not be reached
FMND/CYP17A1 [4]; FMND/CYP17A1 vs CYP17A1, poorly defined
  trend of the FMN domain effect on kcat and Km, in words: increase kcat as well as Km

## CC1(C)SCCN(S(=O)(=O)c2ccc(Oc3ccncc3)cc2)[C@H]1C(=O)NO [prinomastat]
CYP2D6
  spectral shift (binding mode): type II
FMND/CYP2D6; difference spectra, FMND/CYP2D6 fusion, FMN domain oxidized
  spectral shift (binding mode): type II

## Clc1ccccc1C(c1ccccc1)(c1ccccc1)n1ccnc1 [clotrimazole]
FMND/CYP3A4 [5]
  reduction in the Kd value by FMND fusion: 49%
  reduction in total binding / final saturation (ΔAmax) by FMND fusion: 58%

## O=c1ccc2ccccc2o1 [coumarin]
CYP2A6
  spectral shift (binding mode): type I
FMND/CYP2A6 [6]; [11]
  change in total ligand binding by FMN domain fusion, in words: relatively little change
  increase in the Kd value by FMN domain fusion: more than 2 fold
FMND/CYP2A6 [6]
  spectral shift (binding mode): type I
FMND/CYP2A6 [7]
  effect on Km, in words: little effect
  effect on catalytic efficiency, in words: decreased

## CC(=O)[C@@]1(O)CC[C@H]2[C@@H]3CC=C4C[C@@H](O)CC[C@]4(C)[C@H]3CC[C@@]21C [17α-hydroxypregnenolone]
CYP17A1
  spectral shift (binding mode): type I
FMND/CYP17A1 [1]; [9]
  decrease in Kd by FMN domain fusion: 12%
  effect of FMN domain fusion on saturation (ΔAmax), in words: little effect
  increase in overall binding efficiency (ΔAmax/Kd) by FMN domain fusion: 16%
FMND/CYP17A1 [1]
  spectral shift (binding mode): type I

## CC[C@@H]1C(=O)OC[C@@H]1Cc1cncn1C [pilocarpine]
FMND/CYP2D6; [12]
  increase in affinity by FMN domain fusion: 37%
  increase in ΔAmax/Kd binding efficiency by FMN domain fusion: 32%
  reduction in total binding at saturation by FMN domain fusion: 17%
CYP2A6
  spectral shift (binding mode): type II
FMND/CYP2A6 [6]; [11]
  change in the affinity by FMN domain fusion, in words: no change
  decrease in total binding (ΔAmax) by FMN domain fusion: 30%
FMND/CYP2A6 [6]
  spectral shift (binding mode): type II

## CC(=O)[C@H]1CC[C@H]2[C@@H]3CC=C4C[C@@H](O)CC[C@]4(C)[C@H]3CC[C@]12C [pregnenolone]
CYP17A1
  spectral shift (binding mode): type I
FMND/CYP17A1 [1]; [9]
  effect of FMN domain fusion on binding efficiency, in words: largely unchanged
  effect of FMN domain fusion on saturation (ΔAmax), in words: increased
FMND/CYP17A1 [1]
  spectral shift (binding mode): type I

## CC(=O)N1CCN(c2ccc(OCC3COC(Cn4ccnc4)(c4ccc(Cl)cc4Cl)O3)cc2)CC1 (stereo not drawn) [ketoconazole]
FMND/CYP17A1 [1]; [9]
  effect of FMN domain fusion on saturation (ΔAmax), in words: no significant changes; also recorded: essentially no effect
FMND/CYP21A2 [2]; [10]
  decrease in total / maximal absorbance change (ΔAmax) by FMN domain fusion: ~30%
  increase in the dissociation constant by FMN domain fusion: 31%

## C[C@]12CCC(=O)C=C1CC[C@@H]1[C@@H]2[C@@H](O)C[C@@]2(C)[C@H]1CC[C@]2(O)C(=O)CO [hydrocortisone]
FMND/CYP3A4 [8]
  decrease in Km by addition of the FMN domain: ~30%
  decrease in kcat by addition of the FMN domain: ~21%
FMND/CYP3A4 [5]
  reduction in the Kd value by FMND fusion: 30%
  reduction in total binding / final saturation (ΔAmax) by FMND fusion: 33%

From publication PMC10481364 (The Journal of Biological Chemistry, 2023)
